Source: the supplement of paper PMC6045584
± gives the standard deviation of the averaged measurements.

Tests used:
PACLITAXEL = compound: CC(=O)O[C@H]1C(=O)[C@@]2(C)[C@H]([C@H](OC(=O)c3ccccc3)[C@]3(O)C[C@H](OC(=O)[C@H](O)[C@@H](NC(=O)c4ccccc4)c4ccccc4)C(C)=C1C3(C)C)[C@]1(OC(C)=O)CO[C@@H]1C[C@@H]2O [PACLITAXEL]; assay: surviving fraction relative to DMSO-only wells; higher = less growth inhibition; settings: exposure time: 5 days
Procedure, shortened: (§1)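 Tumour cell lines were grown to log phase and seeded at 250–500 cells per well in 384-well plates. They were exposed continuously to inhibitors at 0.5, 1, 5, 10, 50, 100, 500 and 1000 nM for five days, beginning 24 hours after seeding. Surviving fraction is CellTiter-Glo luminescence normalised to the median of DMSO-only wells.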

CARBOPLATIN = compound: O=C(O)C1(C(=O)O)CCC1.[NH2-].[NH2-].[Pt+2] [CARBOPLATIN]; assay: as above; settings: exposure time: 5 days
Procedure, shortened: as §1

Test System | surviving fraction (PACLITAXEL; 0.5 nM) | surviving fraction (PACLITAXEL; 1 nM) | surviving fraction (PACLITAXEL; 5 nM) | surviving fraction (PACLITAXEL; 10 nM) | surviving fraction (PACLITAXEL; 50 nM) | surviving fraction (PACLITAXEL; 100 nM) | surviving fraction (PACLITAXEL; 500 nM) | surviving fraction (PACLITAXEL; 1000 nM) | surviving fraction (CARBOPLATIN; 0.5 nM) | surviving fraction (CARBOPLATIN; 1 nM) | surviving fraction (CARBOPLATIN; 5 nM) | surviving fraction (CARBOPLATIN; 10 nM) | surviving fraction (CARBOPLATIN; 50 nM) | surviving fraction (CARBOPLATIN; 100 nM) | surviving fraction (CARBOPLATIN; 500 nM) | surviving fraction (CARBOPLATIN; 1000 nM)
SUM159 BREAST | 1.13 ± 0.24 | 1.1 ± 0.15 | 0.57 ± 0.024 | 0.179 ± 0.0045 | 0.12 ± 0.0095 | 0.107 ± 0.0015 | 0.124 ± 0.0017 | 0.137 ± 0.02 | 1.12 ± 0.024 | 1.1 ± 0.02 | 1.1 ± 0.016 | 1.09 ± 0.024 | 1.09 ± 0.022 | 1.09 ± 0.015 | 1.11 ± 0.022 | 1.092 ± 0.01
MDAMB231 BREAST | 0.706 ± 0.028 | 0.328 ± 0.039 | 0.163 ± 0.0032 | 0.125 ± 0.0027 | 0.121 ± 0.0031 | 0.121 ± 0.0088 | 0.0907 ± 0.0055 | 0.0993 ± 0.0078 | 0.997 ± 0.048 | 0.988 ± 0.019 | 0.994 ± 0.036 | 1 ± 0.027 | 1.01 ± 0.019 | 1.02 ± 0.038 | 1.03 ± 0.026 | 1.02 ± 0.041
HS578T BREAST | 0.428 ± 0.043 | 0.246 ± 0.019 | 0.127 ± 0.0038 | 0.108 ± 0.011 | 0.126 ± 0.013 | 0.109 ± 0.0027 | 0.11 ± 0.01 | 0.101 ± 0.01 | 1.06 ± 0.25 | 1.04 ± 0.091 | 1.07 ± 0.14 | 1.12 ± 0.16 | 0.964 ± 0.055 | 1.03 ± 0.13 | 0.992 ± 0.17 | 1 ± 0.076
COLO320DM LARGE INTESTINE | 1.12 ± 0.1 | 1.1 ± 0.091 | 1.1 ± 0.018 | 1.03 ± 0.18 | 0.525 ± 0.033 | 0.292 ± 0.014 | 0.161 ± 0.015 | 0.116 ± 0.0099 | 1.12 ± 0.013 | 1.14 ± 0.021 | 1.1 ± 0.045 | 1.06 ± 0.059 | 1.2 ± 0.057 | 1.2 ± 0.15 | 1.15 ± 0.094 | 1.14 ± 0.1
OS25HAL BONE | 0.99 ± 0.023 | 0.993 ± 0.039 | 0.29 ± 0.028 | 0.118 ± 0.007 | 0.077 ± 0.0062 | 0.0677 ± 0.011 | 0.0523 ± 0.0029 | 0.0687 ± 0.017 | 1.09 ± 0.045 | 1.03 ± 0.019 | 0.994 ± 0.034 | 1.03 ± 0.019 | 1.18 ± 0.025 | 1.17 ± 0.053 | 1.06 ± 0.04 | 1.14 ± 0.029
HMLE3 BREAST | 0.89 ± 0.065 | 0.816 ± 0.1 | 0.247 ± 0.019 | 0.0813 ± 0.0093 | 0.05 ± 0.007 | 0.0377 ± 0.0042 | 0.034 ± 0.0027 | 0.0287 ± 0.0011 | 1.07 ± 0.033 | 1.1 ± 0.053 | 1.11 ± 0.06 | 1.18 ± 0.092 | 1.06 ± 0.042 | 1.05 ± 0.11 | 1.02 ± 0.057 | 1.08 ± 0.13
SUM149.B1*.S BREAST | 0.994 ± 0.029 | 1.02 ± 0.048 | 0.238 ± 0.027 | 0.158 ± 0.029 | 0.1 ± 0.0056 | 0.0972 ± 0.0036 | 0.091 ± 0.0063 | 0.097 ± 0.0076 | 1.15 ± 0.096 | 1.11 ± 0.02 | 1.12 ± 0.07 | 1.07 ± 0.025 | 1.17 ± 0.024 | 1.2 ± 0.029 | 1.19 ± 0.052 | 1.13 ± 0.025
T47D BREAST | 0.718 ± 0.018 | 0.579 ± 0.01 | 0.307 ± 0.0054 | 0.265 ± 0.027 | 0.226 ± 0.011 | 0.222 ± 0.022 | 0.214 ± 0.0067 | 0.226 ± 0.023 | 1.02 ± 0.049 | 1.04 ± 0.04 | 1.04 ± 0.083 | 1.01 ± 0.019 | 1.05 ± 0.013 | 1.05 ± 0.059 | 1.05 ± 0.028 | 1.03 ± 0.042
